Source: PMC3760172 (Bioorganic & medicinal chemistry, 2013)

Molecular target: rat nNOS (Rattus norvegicus, UniProt P29476)
Assay: NOS inhibition assay
Format: biochemical
Details: compared with inhibitor 27

## Cc1cc(N)nc(COc2cccc(NCCc3cccc(F)c3)c2)c1 [Compound 24]
  decrease in potency (nNOS) relative to 27: 54 fold
